Results reported in patent publication US11464780B2, “Pyrazolopyrimidine derivative and use thereof” (Simcere Pharmaceutical Co. Ltd., priority 2018, dated 2022).
Where two headings read alike, the source gives them in different places.

Key:
[1] = target: T1, ALK (Homo sapiens, UniProt Q9UM73); assay: Kinase inhibitory activity (33P-ATP filter binding, Reaction Biology Corp.); type: biochemical; conditions: read-out: The half maximal inhibitory concentration IC50 on the kinases, ALK
T1 construct: purchased Reaction Biology Corp. (contract assay)
Experimental: The inhibitory activities of the compounds on TrkA, TrkC, ALK, Ros1 and other kinases were determined by Reaction Biology Corp. To reaction buffer (20 mM Hepes (pH 7.5), 10 mM MgCl2, 1 mM EGTA, 0.02% Brij35, 0.02 mg/mL BSA, 0.1 mM Na3VO4, 2 mM DTT, 1% DMSO) were sequentially added a certain concentration of substrate, coenzyme factor, kinase and test compound (10 concentrations, 3-fold serial dilutions, DMSO at a final concentration of […]), and the mixture was mixed evenly. The mixture was incubated at room temperature for 20 minutes. To the reaction mixture was added a certain concentration of ^33P-ATP to initiate the reaction, and then the mixture was incubated at room temperature for 120 minutes. The radioactivities of the reactants were determined by the method of filter binding. The final kinase activity was expressed as the ratio of the remaining kinase activity in the test sample to the kinase activity in the DMSO control group. The dose-effect curve was fitted by GraphPad software and the IC50 was calculated.

[2] = target: T2, Ros1 (Homo sapiens, UniProt P08922); assay: as above; type: biochemical; conditions: read-out: The half maximal inhibitory concentration IC50 on the kinases, Ros1
T2 construct: purchased Reaction Biology Corp. (contract assay)
Experimental: (§1) The mixture was incubated at room temperature for 20 minutes. To the reaction mixture was added a certain concentration of ^33P-ATP to initiate the reaction, and then the mixture was incubated at room temperature for 120 minutes. The radioactivities of the reactants were determined by the method of filter binding. The final kinase activity was expressed as the ratio of the remaining kinase activity in the test sample to the kinase activity in the DMSO control group. The dose-effect curve was fitted by GraphPad software and the IC50 was calculated.

[3] = target: T3, TrkA (Homo sapiens, UniProt P04629); assay: as above; type: biochemical; conditions: read-out: The half maximal inhibitory concentration IC50 on the kinases, TrkA
T3 construct: purchased Reaction Biology Corp. (contract assay)
Experimental: as §1

[4] = target: T4, TrkA-G667C (Homo sapiens, UniProt P04629, G667C); assay: as above; type: biochemical; conditions: read-out: The half maximal inhibitory concentration IC50 on the kinases, TrkA-G667C
T4 construct: purchased Reaction Biology Corp. (contract assay)
Experimental: as §1

[5] = target: T5, TrkC (Homo sapiens, UniProt Q16288); assay: as above; type: biochemical; conditions: read-out: The half maximal inhibitory concentration IC50 on the kinases, TrkC
T5 construct: purchased Reaction Biology Corp. (contract assay)
Experimental: as §1

[6] = target: T6, TrkA-G595R (Homo sapiens, UniProt P04629, G595R); assay: as above; type: biochemical; conditions: read-out: The half maximal inhibitory concentration IC50 on the kinases, TrkA-G595R
T6 construct: purchased Reaction Biology Corp. (contract assay)
Experimental: as §1

[7] = In vivo pharmacokinetic test in mice; set-up: species or system male CD-1 mice; conditions: for Vd: read-out: Apparent volume of distribution Vd; for AUC(0-t): read-out: Area under the curve AUC0-last; for half-life: read-out: Half life T1/2 (converted); for bioavailability: PO dose of 10 mL/kg vs IV 3 mg/kg, read-out: Bioavailability F %; for Cmax: read-out: Peak concentration Cmax; for Tmax: read-out: Time of peak concentration Tmax
Experimental: Experimental object: male CD-1 mice aged 7-9 weeks were used as the experimental animals, the LC/MS/MS method was used to determine the drug concentrations in plasma at different time points after single intravenous (IV) and intragastric (PO) administration of the compounds, in vivo pharmacokinetic behaviors of the compounds of the present disclosure in mice were studied, and pharmacokinetic characteristics thereof were evaluated. Drug preparation: The compounds were prepared into clear solutions with 5% DMSO+10% solutol+85% water as solvent for administration in IV (intravenous) group and PO (intragastric). The dose of the compounds: IV dose of 3 mg/kg, and PO dose of […].

[8] = target: T7, Ba/F3 LMNA-NTRK1-WT stably transfected cell line (Homo sapiens, UniProt P04629); assay: Cell proliferation inhibition (CellTiter-Glo); type: cell-based; conditions: 72 hours, read-out: The half maximal inhibitory concentration IC50 against cells, Ba/F3 LMNA-NTRK1-WT
T7 construct: fused on or other part: P02545 (Prelamin-A/C)
Experimental: Adenosine Tri-Phosphate (ATP) is an energy carrier shared by various life activities in nature, and is the smallest unit of energy storage and transfer. The CellTiter-Glo™ cell viability detection kit uses luciferase as the detection substance, and luciferase requires the participation of ATP during the process of luminescence. CellTiter-Glo™ reagent is added to cell culture medium, and the luminescent intensity is measured. The luminescent signal is directly proportional to the amount of ATP in the system, and ATP is positively related to the number of living cells. Therefore, by using the CellTiter-Glo kit to detect ATP content, cell proliferation can be detected. In this assay, the cell line is Ba/F3 LMNA-NTRK1-WT stably transfected cell line, with 5000 cells/well.
IC50 Determination Process:
1. Cell Culture and Inoculation
a) the cells in the logarithmic growth phase were harvested, and counted with a platelet counter. Trypan blue exclusion method was used to detect cell viability to ensure the cell viability was no less than 90%.
b) the cell concentration was adjusted; 90 μL of cell suspension was added respectively into a 96-well plate.
c) the cells in the 96-well plates was cultured under conditions of 37° C., 5% CO2 and 95% humidity overnight.
2. Drug Dilution and Administration
a) 10-fold drug solutions were prepared, the highest concentration was 10 μM, 9 concentrations, 3-fold diluted (refer to Appendix I). 10 μL of each drug solution was added to each well of the 96-well plate seeded with the cells in triplicate.
b) the cells in the 96-well plate added with the drug were cultured under conditions of 37° C., 5% CO2 and 95% humidity for 72 hours, and then CTG (cell proliferation) was performed.
a) CellTiter-Glo™ reagent was thawed, and the cell plate was equilibrated at room temperature for 30 minutes.
b) CellTiter-Glo™ reagent of a same volume was added to each well;
c) the cell plate was shaken on an orbital shaker for 5 minutes to lyse the cells.
d) the cell plate was placed at room temperature for 20 minutes to stabilize the luminescent signal.
e) the luminescent intensity was read.
GraphPad Prism 5.0 software was used to analyze the data, nonlinear S-curve regression was used to fit the data to obtain dose-effect curve, and IC50 value was calculated therefrom.

[9] = target: T8, BaF3 ETV6-NTRK3-G623R stably transfected cell line (Homo sapiens, UniProt Q16288, G623R, cells depend on it); assay: Cell proliferation inhibition (CellTiter-Glo); type: cell-based; conditions: 72 hours, read-out: The half maximal inhibitory concentration IC50 against cells, BaF3 ETV6-NTRK3-G623R
T8 construct: fused on or other part: P41212 (Transcription factor ETV6)

[10] = target: T9, Ba/F3 LMNA-NTRK1-G595R stably transfected cell line (Homo sapiens, UniProt P04629, G595R, cells depend on it); assay: Cell proliferation inhibition (CellTiter-Glo); type: cell-based; conditions: 72 hours, read-out: The half maximal inhibitory concentration IC50 against cells, Ba/F3 LMNA-NTRK1-G595R
T9 construct: fused on or other part: P02545 (Prelamin-A/C)

[11] = tested on: human colon cancer cell line KM12 subcutaneous xenograft tumor; assay: In vivo efficacy, subcutaneous xenograft tumor of human colon cancer KM12; set-up: species or system BALB/c mouse; conditions: PO
Experimental: Experimental object: evaluation of the in vivo efficacy of test drugs such as WX002A on subcutaneous xenograft tumor of human colon cancer cell line KM12 cell in BALB/c mouse model.
Drug preparation: The compounds were all prepared into clear solutions with 5% DMSO+10% solutol+85% water as solvent for administration in the PO (intragastric) group.
Tumor measurement: the tumor diameters were measured with a vernier caliper twice a week. The calculation formula of tumor volume is: V=0.5×a×b^2, wherein a and b represent the long diameter and short diameter of the tumor, respectively. The anti-tumor efficacy of the compounds is evaluated by TGI (%). TGI (%) reflects tumor growth inhibition rate.
Statistical analysis: The statistical analysis was based on the relative tumor volume and tumor weight at the end of the experiment using SPSS software. One-way ANOVA was used to analyze the comparison between multiple groups. […] P<0.05 was considered to indicate significant difference.

[12] = In vivo cassette pharmacokinetic test in mice; set-up: species or system male CD-1 mice; conditions: cassette, mice; for Apparent clearance Cl: IV @ 1 mpk
Experimental: The dose of the compounds: […] PO dose of 3 mg/kg, and administration volume of 3 mL/kg.

[13] = male, CD-1, mouse, plasma, IV dose of 3 mg/kg
[14] = male, CD-1, mouse, plasma, PO dose of 10 mL/kg

T4 sequence (P04629 33-796 G667C): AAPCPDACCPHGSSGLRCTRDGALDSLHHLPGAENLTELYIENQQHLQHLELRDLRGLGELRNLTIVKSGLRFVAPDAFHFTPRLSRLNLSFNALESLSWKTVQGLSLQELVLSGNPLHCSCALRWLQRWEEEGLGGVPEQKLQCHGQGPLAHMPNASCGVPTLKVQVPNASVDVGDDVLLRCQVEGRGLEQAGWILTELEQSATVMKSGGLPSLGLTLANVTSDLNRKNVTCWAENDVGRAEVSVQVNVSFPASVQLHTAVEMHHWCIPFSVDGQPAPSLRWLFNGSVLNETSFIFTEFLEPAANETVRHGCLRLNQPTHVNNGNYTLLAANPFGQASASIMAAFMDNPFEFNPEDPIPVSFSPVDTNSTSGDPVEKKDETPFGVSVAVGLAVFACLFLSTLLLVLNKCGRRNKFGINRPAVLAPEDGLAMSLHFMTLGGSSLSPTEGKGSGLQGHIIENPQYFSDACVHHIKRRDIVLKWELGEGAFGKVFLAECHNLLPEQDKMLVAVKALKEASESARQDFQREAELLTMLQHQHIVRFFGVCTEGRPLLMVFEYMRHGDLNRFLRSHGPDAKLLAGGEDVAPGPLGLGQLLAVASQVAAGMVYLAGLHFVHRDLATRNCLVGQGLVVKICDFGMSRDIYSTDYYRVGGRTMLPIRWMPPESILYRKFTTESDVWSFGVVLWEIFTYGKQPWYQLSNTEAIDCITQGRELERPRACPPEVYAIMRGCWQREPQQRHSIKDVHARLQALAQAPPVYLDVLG
T5 sequence (Q16288 32-839): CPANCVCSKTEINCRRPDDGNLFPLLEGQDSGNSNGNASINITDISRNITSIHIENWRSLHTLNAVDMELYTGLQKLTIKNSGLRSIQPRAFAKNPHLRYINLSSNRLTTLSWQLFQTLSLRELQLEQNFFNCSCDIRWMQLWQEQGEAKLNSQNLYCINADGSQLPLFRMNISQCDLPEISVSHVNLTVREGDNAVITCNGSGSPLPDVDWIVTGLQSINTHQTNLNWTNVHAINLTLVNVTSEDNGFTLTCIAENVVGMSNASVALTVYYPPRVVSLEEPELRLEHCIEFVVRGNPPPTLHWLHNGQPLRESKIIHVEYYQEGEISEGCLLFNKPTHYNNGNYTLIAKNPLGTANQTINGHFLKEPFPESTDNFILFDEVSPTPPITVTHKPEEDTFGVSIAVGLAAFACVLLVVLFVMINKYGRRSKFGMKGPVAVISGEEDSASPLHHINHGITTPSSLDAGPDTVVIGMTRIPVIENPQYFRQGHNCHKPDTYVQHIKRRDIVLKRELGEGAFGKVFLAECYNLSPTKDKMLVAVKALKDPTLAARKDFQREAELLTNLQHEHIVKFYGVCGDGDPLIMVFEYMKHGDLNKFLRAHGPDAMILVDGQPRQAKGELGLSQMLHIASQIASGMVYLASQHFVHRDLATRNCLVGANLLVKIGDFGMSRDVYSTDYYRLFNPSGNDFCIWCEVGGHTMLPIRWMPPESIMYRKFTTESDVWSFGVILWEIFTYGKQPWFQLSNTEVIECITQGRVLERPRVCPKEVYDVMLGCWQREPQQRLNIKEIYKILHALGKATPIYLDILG
T6 sequence (P04629 33-796 G595R): as the sequence (P04629 33-796 G667C) above, with G563R, C635G counted along it
T3 sequence (P04629 33-796): as the sequence (P04629 33-796 G667C) above, with C635G counted along it
T1 sequence (Q9UM73 19-1620): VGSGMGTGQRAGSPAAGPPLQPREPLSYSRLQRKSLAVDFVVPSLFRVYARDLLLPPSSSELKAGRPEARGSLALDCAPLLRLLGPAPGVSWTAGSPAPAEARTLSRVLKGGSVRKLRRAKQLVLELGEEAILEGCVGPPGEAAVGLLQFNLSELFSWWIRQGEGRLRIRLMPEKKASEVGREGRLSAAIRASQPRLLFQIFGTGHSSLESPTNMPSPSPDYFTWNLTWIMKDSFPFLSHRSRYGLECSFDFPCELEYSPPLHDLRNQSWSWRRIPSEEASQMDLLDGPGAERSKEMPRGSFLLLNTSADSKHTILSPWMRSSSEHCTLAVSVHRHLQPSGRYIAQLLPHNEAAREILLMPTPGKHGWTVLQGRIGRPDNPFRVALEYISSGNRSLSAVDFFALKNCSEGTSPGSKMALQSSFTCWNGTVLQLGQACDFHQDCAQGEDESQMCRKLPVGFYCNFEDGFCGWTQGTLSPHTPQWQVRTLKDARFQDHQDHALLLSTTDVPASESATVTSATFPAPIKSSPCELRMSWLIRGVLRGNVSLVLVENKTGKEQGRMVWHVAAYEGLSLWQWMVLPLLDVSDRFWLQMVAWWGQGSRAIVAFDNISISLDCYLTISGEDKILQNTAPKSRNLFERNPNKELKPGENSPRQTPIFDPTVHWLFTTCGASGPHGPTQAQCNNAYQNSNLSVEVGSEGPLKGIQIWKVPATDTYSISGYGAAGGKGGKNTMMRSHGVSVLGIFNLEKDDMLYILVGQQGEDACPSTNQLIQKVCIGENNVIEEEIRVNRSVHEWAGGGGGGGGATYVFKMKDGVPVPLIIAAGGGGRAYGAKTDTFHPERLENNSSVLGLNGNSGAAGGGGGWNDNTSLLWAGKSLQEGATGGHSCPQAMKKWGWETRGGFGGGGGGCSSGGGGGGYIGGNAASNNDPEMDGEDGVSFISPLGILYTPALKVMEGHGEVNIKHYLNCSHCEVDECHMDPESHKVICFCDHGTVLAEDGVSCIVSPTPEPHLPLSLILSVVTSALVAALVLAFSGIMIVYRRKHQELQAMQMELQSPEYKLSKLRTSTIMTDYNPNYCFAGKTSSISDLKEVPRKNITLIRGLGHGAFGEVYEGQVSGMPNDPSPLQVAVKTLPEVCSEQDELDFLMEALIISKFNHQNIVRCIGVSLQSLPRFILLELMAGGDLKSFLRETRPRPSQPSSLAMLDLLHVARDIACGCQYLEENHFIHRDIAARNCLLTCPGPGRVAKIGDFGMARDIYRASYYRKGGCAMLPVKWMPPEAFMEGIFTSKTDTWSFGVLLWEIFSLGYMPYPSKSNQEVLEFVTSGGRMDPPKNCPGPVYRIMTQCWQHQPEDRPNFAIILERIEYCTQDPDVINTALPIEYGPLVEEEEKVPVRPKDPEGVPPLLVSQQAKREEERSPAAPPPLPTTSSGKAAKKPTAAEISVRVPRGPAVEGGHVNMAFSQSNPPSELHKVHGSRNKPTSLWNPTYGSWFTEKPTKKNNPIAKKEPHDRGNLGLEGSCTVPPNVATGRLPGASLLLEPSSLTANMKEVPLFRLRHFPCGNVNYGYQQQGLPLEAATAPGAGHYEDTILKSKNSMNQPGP
T9 sequence (P04629 whole entry G595R, the tested form may be a part): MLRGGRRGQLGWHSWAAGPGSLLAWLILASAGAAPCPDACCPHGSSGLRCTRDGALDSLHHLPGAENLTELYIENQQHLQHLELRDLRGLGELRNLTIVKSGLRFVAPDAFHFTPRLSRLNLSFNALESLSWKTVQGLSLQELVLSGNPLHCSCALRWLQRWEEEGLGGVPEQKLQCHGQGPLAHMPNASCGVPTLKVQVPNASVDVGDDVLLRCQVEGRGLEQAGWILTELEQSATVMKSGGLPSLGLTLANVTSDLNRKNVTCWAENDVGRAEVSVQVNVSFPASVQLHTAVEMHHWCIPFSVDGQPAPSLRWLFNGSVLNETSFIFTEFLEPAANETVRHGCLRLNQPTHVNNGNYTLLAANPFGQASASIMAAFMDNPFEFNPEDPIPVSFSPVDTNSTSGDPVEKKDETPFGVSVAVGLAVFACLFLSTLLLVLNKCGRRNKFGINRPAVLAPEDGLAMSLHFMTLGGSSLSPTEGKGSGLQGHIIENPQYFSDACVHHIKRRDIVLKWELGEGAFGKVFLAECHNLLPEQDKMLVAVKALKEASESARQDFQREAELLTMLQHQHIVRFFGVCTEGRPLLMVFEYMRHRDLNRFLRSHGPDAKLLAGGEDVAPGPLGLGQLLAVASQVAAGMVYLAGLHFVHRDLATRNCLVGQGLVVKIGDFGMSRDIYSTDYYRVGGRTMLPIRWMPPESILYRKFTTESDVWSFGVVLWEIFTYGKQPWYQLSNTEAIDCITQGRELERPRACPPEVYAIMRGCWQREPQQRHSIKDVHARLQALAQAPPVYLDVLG
T8 sequence (Q16288 whole entry G623R, the tested form may be a part): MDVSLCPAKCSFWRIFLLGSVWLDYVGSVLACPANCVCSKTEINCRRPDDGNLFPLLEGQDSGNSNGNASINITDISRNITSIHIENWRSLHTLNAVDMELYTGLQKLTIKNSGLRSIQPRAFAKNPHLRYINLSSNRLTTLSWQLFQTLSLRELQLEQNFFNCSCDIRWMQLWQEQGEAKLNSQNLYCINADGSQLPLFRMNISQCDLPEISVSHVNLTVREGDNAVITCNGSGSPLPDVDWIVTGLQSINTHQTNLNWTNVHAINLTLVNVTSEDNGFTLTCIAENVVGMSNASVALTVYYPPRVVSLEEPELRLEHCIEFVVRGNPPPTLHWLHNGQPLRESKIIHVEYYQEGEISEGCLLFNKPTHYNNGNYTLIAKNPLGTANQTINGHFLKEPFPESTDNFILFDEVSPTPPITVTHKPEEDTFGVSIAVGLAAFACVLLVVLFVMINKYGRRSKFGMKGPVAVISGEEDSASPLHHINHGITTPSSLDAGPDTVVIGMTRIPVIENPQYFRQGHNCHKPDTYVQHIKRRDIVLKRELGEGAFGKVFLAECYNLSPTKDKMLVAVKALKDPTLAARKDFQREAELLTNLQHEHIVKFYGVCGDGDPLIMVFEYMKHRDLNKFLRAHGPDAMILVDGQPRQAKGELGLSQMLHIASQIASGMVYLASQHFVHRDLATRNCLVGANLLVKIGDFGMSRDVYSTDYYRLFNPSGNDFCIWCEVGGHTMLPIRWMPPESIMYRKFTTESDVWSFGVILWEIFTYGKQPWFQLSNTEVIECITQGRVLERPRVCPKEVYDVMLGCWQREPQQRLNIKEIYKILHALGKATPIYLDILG
T7 sequence (P04629 whole entry, stated change not applied, the tested form may be a part): as the sequence (P04629 whole entry G595R, the tested form may be a part) above, with R595G counted along it

SMILES | IC50 [1] [nM] | IC50 [2] [nM] | IC50 [3] [nM] | IC50 [4] [nM] | IC50 [5] [nM] | IC50 [6] [nM] | Apparent clearance Cl ([7]; IV dose of 3 mg/kg) [mL/min/kg] | Vd [7, 13] [L/kg] | AUC(0-t) [7, 13] [µM·h] | half-life [7, 13] [min] | bioavailability ([7]; male, CD-1, mouse, plasma) [%] | AUC(0-t) [7, 14] [µM·h] | Cmax [7, 14] [µM] | Tmax [7, 14] [min] | GI50 [8] [nM] | GI50 [9] [nM] | GI50 [10] [nM] | Apparent clearance Cl [12] [mL/min/kg] | drug concentration in cerebrospinal fluid at 0.5 hour CSF@0.5 h ([12]; PO @ 3 mpk, CSF) [nmol/kg] | drug concentration in brain at 0.5 h Brain@0.5 h ([12]; PO @ 3 mpk) [nmol/kg] | further results
O=C1NC2(COC2)COc2ncc(F)cc2[C@H]2CCON2c2ccn3ncc1c3n2 [WX006A] | 79.2 | 0.59 | 9.84 | 37.5 | 0.16 | 4.74 | 19.9 | 1.01 | 6.1 | 33.6 | 72 | 14.4 | 8.78 | 15 | 23.5 | 5.4 | 19.4 | – | – | – | –
C[C@H]1CNC(=O)c2cnn3ccc(nc23)N[C@H](C)c2cc(F)ccc2O1 [TPX-0005, reference compound] | – | – | – | – | – | – | – | – | – | – | – | – | – | – | – | – | – | 16.5 | 8 | 50 | T/C ([11]; dose of 3 mg/kg): 16.80%; TGI ([11]; dose of 3 mg/kg): 87.46%; drug concentration in brain at 2 h Brain@2 h ([12]; PO @ 3 mpk, 2 h): 41 nmol/kg
O=C(Nc1cnn2ccc(N3CCC[C@@H]3c3cc(F)ccc3F)nc12)N1CC[C@H](O)C1 [LOXO-101, Larotrectinib, reference compound] | – | – | – | – | – | – | – | – | – | – | – | – | – | – | – | – | – | 22.7 | 15 | 40 | T/C ([11]; high-dose group 60 mg/kg): 34.20%; TGI ([11]; high-dose group 60 mg/kg): 69.73%; drug concentration in cerebrospinal fluid at 2 hour CSF@2 h ([12]; PO @ 3 mpk, CSF, 2 h): 3 nmol/kg; drug concentration in brain at 2 h Brain@2 h ([12]; PO @ 3 mpk, 2 h): 20 nmol/kg; Area under the curve AUC0-last ([7]; PO dose of 10 mL/kg): 2.89 µM·h; Time of peak concentration Tmax ([7]; PO dose of 10 mL/kg): 22.8 min; Cmax ([7]; PO dose of 10 mL/kg): 1.55 µM

Second part, led by results:

IC50 [1] [nM] | IC50 [2] [nM] | IC50 [3] [nM] | IC50 [4] [nM] | IC50 [5] [nM] | IC50 [6] [nM] | Apparent clearance Cl ([7]; IV dose of 3 mg/kg) [mL/min/kg] | Vd [7, 13] [L/kg] | AUC(0-t) [7, 13] [µM·h] | half-life [7, 13] [min] | bioavailability ([7]; male, CD-1, mouse, plasma) [%] | AUC(0-t) [7, 14] [µM·h] | Cmax [7, 14] [µM] | Tmax [7, 14] [min] | GI50 [8] [nM] | GI50 [9] [nM] | GI50 [10] [nM] | Apparent clearance Cl [12] [mL/min/kg] | drug concentration in cerebrospinal fluid at 0.5 hour CSF@0.5 h ([12]; PO @ 3 mpk, CSF) [nmol/kg] | drug concentration in brain at 0.5 h Brain@0.5 h ([12]; PO @ 3 mpk) [nmol/kg] | SMILES | further results
119 | 0.82 | 13.4 | 26.3 | 0.3 | 37.1 | 17.8 | 0.74 | 7.34 | 42.6 | 111 | 26.7 | 10.8 | 37.8 | – | – | – | – | – | – | C[C@@H]1COc2ccc(F)cc2[C@H]2CCON2c2ccn3ncc(c3n2)C(=O)N1 [WX017A] | –
109 | 0.94 | 14.3 | 42 | 0.41 | 38.5 | 10.4 | 0.75 | 12.5 | 44.4 | 72 | 29.6 | 10.5 | 30 | 7.69 | 2.1 | 14.5 | – | – | – | C[C@@H]1COc2ncc(F)cc2[C@H]2CCON2c2ccn3ncc(c3n2)C(=O)N1 [WX004A] | –
